In ChEMBL document CHEMBL1129561 (J Med Chem, 1996):

Assays:
Androgen receptor [1] = molecular target: T1, Androgen receptor (Homo sapiens, UniProt P10275)
T1 sequence (P10275 whole entry): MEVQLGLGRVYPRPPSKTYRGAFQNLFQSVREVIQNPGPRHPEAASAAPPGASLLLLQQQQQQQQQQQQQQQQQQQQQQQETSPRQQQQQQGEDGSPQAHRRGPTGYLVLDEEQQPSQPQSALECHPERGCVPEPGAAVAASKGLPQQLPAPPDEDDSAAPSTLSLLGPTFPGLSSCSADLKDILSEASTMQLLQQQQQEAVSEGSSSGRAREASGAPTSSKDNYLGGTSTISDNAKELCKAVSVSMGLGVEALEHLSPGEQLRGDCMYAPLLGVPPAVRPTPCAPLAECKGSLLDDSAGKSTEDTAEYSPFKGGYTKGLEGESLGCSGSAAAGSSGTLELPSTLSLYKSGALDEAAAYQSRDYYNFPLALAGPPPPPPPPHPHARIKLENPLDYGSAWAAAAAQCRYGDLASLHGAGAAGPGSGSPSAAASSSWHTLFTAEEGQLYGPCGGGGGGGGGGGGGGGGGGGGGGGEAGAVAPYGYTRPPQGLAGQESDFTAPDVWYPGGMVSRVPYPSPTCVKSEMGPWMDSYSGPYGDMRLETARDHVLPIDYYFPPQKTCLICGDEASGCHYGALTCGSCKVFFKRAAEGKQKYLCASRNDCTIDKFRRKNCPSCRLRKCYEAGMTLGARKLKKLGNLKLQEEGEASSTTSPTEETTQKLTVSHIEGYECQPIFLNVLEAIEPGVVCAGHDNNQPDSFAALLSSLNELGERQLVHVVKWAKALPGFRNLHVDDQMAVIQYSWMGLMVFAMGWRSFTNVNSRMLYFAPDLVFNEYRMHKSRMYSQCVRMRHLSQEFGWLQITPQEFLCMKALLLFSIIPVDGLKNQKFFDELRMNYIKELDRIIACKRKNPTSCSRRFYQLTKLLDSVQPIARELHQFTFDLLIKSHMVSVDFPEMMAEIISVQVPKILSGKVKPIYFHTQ
Description: Binding affinity determined against human Androgen receptor

Progesterone receptor [2] = molecular target: T2, Progesterone receptor (Homo sapiens, UniProt P06401)
T2 sequence (P06401 whole entry): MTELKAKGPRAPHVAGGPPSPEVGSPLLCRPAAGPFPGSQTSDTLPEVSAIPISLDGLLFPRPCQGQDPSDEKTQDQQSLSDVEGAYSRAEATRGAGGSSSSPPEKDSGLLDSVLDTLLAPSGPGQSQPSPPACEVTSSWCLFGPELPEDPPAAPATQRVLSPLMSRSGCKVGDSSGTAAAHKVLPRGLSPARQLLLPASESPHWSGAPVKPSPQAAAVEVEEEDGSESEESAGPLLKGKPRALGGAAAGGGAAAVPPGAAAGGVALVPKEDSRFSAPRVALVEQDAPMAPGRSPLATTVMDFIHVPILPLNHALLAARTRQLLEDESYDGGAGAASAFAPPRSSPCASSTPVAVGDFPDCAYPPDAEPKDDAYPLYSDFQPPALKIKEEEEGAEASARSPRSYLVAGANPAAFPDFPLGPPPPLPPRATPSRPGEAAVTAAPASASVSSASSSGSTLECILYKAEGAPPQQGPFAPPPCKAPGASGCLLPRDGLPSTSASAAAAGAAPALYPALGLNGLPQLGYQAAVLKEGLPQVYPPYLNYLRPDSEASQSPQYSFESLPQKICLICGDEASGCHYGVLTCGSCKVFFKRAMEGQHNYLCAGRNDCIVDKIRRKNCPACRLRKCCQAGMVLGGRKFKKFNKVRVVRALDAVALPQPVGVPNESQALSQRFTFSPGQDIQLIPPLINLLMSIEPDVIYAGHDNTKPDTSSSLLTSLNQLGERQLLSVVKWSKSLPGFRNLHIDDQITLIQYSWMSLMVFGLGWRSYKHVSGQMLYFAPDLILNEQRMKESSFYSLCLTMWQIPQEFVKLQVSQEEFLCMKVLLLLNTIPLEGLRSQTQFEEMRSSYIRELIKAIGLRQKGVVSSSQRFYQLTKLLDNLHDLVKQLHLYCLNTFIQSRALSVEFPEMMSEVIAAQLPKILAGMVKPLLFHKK

Glucocorticoid receptor [3] = molecular target: T3, Glucocorticoid receptor (Homo sapiens, UniProt P04150)
T3 sequence (P04150 whole entry): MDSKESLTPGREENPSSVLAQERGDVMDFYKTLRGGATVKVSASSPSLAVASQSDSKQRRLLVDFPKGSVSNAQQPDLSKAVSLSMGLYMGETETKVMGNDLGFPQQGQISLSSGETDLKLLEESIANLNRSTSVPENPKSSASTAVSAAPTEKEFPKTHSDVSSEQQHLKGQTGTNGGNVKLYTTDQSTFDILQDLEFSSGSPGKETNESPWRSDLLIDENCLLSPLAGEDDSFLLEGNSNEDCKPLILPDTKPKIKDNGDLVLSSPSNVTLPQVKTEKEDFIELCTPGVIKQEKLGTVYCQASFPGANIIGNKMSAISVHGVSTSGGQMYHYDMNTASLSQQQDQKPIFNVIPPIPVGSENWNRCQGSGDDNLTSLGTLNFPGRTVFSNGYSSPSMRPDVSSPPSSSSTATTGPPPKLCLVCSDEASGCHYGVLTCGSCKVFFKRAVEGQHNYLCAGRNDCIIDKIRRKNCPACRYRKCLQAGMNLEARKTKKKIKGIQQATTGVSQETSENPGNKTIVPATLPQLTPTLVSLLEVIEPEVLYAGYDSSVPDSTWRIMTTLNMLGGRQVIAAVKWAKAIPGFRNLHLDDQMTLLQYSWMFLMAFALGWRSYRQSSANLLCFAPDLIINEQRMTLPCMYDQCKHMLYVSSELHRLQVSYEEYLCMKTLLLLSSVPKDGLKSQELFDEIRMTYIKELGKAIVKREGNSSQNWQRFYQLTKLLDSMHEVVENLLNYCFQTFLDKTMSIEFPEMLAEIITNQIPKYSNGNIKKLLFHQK
Description: Binding affinity was determined for human glucocorticoid receptor(hGR).

[4] = molecular target: T4, Progesterone receptor (Homo sapiens) (UniProt P06401); details: CV-1
T4 sequence (whole entry): T2 sequence (P06401 whole entry)

Progesterone receptor [5] = molecular target: T2, Progesterone receptor; experiment: Effective concentration against human Progesterone receptor B isoform expressed in CV-1 cells; format: cell-based
Progesterone receptor [6] = molecular target: T2, Progesterone receptor; remark: listed apart in the source
[7] = molecular target: T5, Mineralocorticoid receptor (Homo sapiens, UniProt P08235)
T5 sequence (P08235 whole entry): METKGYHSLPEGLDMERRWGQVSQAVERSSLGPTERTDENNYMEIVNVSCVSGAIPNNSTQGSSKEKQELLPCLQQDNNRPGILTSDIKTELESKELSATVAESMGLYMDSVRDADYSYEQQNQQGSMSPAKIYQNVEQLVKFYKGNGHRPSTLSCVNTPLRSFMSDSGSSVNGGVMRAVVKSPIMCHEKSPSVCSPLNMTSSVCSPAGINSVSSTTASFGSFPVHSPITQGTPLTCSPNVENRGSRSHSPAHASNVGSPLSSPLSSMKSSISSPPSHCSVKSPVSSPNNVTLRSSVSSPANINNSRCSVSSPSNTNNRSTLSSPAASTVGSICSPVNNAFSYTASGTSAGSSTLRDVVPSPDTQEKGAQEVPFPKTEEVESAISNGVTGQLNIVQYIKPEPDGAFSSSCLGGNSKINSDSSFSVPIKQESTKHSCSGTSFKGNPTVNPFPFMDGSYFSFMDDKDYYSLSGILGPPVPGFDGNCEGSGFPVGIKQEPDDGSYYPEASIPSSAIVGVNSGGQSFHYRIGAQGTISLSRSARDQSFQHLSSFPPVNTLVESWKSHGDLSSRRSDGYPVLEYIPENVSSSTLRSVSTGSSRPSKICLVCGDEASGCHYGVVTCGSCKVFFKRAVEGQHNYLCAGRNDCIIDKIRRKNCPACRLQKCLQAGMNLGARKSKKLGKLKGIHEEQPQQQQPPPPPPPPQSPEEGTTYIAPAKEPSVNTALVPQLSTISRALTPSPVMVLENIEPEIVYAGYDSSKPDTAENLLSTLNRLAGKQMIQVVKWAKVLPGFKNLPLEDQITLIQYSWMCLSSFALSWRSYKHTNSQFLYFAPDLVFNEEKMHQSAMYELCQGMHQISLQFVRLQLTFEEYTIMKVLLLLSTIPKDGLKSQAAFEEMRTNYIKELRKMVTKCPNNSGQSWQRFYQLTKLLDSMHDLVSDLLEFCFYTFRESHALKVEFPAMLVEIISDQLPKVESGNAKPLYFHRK

Androgen receptor [8] = molecular target: T1, Androgen receptor; remark: listed apart in the source
Description: Inhibitory activity against human Androgen receptor

Glucocorticoid receptor [9] = molecular target: T3, Glucocorticoid receptor; remark: listed apart in the source
Androgen receptor [10] = molecular target: T1, Androgen receptor; remark: listed apart in the source
Description: Binding affinity for human Androgen receptor

Estrogen receptor [11] = molecular target: T6, Estrogen receptor (Homo sapiens, UniProt Q92731+P03372)
Description: Binding affinity for human estrogen receptor

Estrogen receptor [12] = molecular target: T6, Estrogen receptor; remark: listed apart in the source
Description: Inhibitory activity against human estrogen receptor

[13] = molecular target: T4, Progesterone receptor (Homo sapiens); details: CV-1; remark: listed apart in the source
Glucocorticoid receptor [14] = molecular target: T3, Glucocorticoid receptor; experiment: Inhibitory activity against human glucocorticoid receptor (hGR)
Progesterone receptor [15] = molecular target: T2, Progesterone receptor; remark: listed apart in the source
[16] = molecular target: T5, Mineralocorticoid receptor; experiment: Inhibitory activity against human mineralocorticoid receptor (hMR)
Glucocorticoid receptor [17] = molecular target: T3, Glucocorticoid receptor; experiment: Binding affinity against human glucocorticoid receptor(hGR).

## C=C1C=C(C)CC(C)(C)C1C/C=C/c1cc(OC)c(Br)cc1O (stereo unspecified)
Androgen receptor [1]
  Ki: 2320 nM
Progesterone receptor [2]
  IC50: 1600 nM
Glucocorticoid receptor [3]
  Ki: 4420 nM
[4]
  Max inhibition: 61%
Progesterone receptor [5]
  EC50: 3300 nM
Progesterone receptor [6]
  Ki: 84 nM

## CN(C)c1ccc([C@H]2CC3(C)[C@@H](CC[C@]3(O)CCCO)[C@@H]3CCC4=CC(=O)CCC4=C32)cc1 (single isomer, unassigned) [ONAPRISTONE]
[7]
  IC50: > 1000 nM
Androgen receptor [8]
  IC50: 269 nM
Glucocorticoid receptor [9]
  IC50: 27 nM
Glucocorticoid receptor [3]
  Ki: 41.8 nM
Androgen receptor [10]
  Ki: > 100 nM
Estrogen receptor [11]
  Ki: < 20 nM
Estrogen receptor [12]
  IC50: > 1000 nM
[13]
  Max inhibition: 99%

## C=C1CCCC(C)(C)[C@H]1Cc1cc(OC)c(Br)cc1O
Glucocorticoid receptor [14]
  IC50: > 10000 nM
Progesterone receptor [15]
  IC50: 741 nM
Progesterone receptor [2]
  IC50: 210 nM
Glucocorticoid receptor [3]
  Ki: 1770 nM
[16]
  IC50: 1500 nM
Estrogen receptor [11]
  Ki: > 10000 nM
[4]
  Max inhibition: 94%
Estrogen receptor [12]
  IC50: > 10000 nM
Progesterone receptor [6]
  Ki: 218 nM

## C=C1CC[C@@H](Br)C(C)(C)[C@H]1Cc1cc(OC)c(Br)cc1O
Glucocorticoid receptor [17]
  Ki: 3210 nM
Glucocorticoid receptor [14]
  IC50: > 10000 nM
Progesterone receptor [15]
  IC50: 549 nM
Androgen receptor [8]
  IC50: 449 nM
Progesterone receptor [2]
  IC50: 354 nM
[4]
  Max inhibition: 83%
Estrogen receptor [12]
  IC50: > 10000 nM
Progesterone receptor [6]
  Ki: 490 nM
